{
  "source": "ChEMBL document CHEMBL6114969",
  "about": "“Ultra-short lipopeptides containing d-amino acid exhibiting excellent stability and antibacterial activity against gram-positive bacteria” (Eur J Med Chem, 2025)",
  "key": {"Staphylococcus aureus [1]": {"tested_on": "Staphylococcus aureus", "assay": "Antibacterial activity against methicillin-resistant Staphylococcus aureus ATCC 33591 infected in Balb/c mouse model of acute systemic infection assessed as reduction in bacterial count in liver at 10 mg/kg, ip measured after 5 days", "type": "functional, organism-based", "conditions": "time 5.0 day"}, "Staphylococcus aureus [2]": {"tested_on": "Staphylococcus aureus", "assay": "Antibacterial activity against Staphylococcus aureus ATCC 25923 incubated for 18 to 24 hrs by broth microdilution method", "type": "functional", "conditions": "time 18-24 hrs"}, "Staphylococcus aureus [3]": {"tested_on": "Staphylococcus aureus", "assay": "Antibacterial activity against Staphylococcus aureus ATCC 29213 incubated for 18 to 24 hrs by broth microdilution method", "type": "functional", "conditions": "time 18-24 hrs"}, "Enterococcus faecalis": {"tested_on": "Enterococcus faecalis", "assay": "Antibacterial activity against Enterococcus faecalis ATCC 29212 incubated for 18 to 24 hrs by broth microdilution method", "type": "functional", "conditions": "time 18-24 hrs"}, "Staphylococcus aureus [4]": {"tested_on": "Staphylococcus aureus", "assay": "Antibacterial activity against methicillin-resistant Staphylococcus aureus ATCC 33591 incubated for 18 to 24 hrs in presence of 2 mg/ml of trypsin by broth microdilution method", "type": "functional", "conditions": "time 18-24 hrs"}, "Staphylococcus aureus [5]": {"tested_on": "Staphylococcus aureus", "assay": "Antibacterial activity against methicillin-resistant Staphylococcus aureus ATCC 33591 incubated for 18 to 24 hrs in presence of 2 mg/ml of chymotrypsin by broth microdilution method", "type": "functional", "conditions": "time 18-24 hrs"}, "Staphylococcus aureus [6]": {"tested_on": "Staphylococcus aureus", "assay": "Antibacterial activity against methicillin-resistant Staphylococcus aureus ATCC 33591 incubated for 18 to 24 hrs in presence of 1 mg/ml of pepsin by broth microdilution method", "type": "functional", "conditions": "time 18-24 hrs"}, "Staphylococcus aureus [7]": {"tested_on": "Staphylococcus aureus", "assay": "Antibacterial activity against methicillin-resistant Staphylococcus aureus ATCC 33591 assessed as fold change in MIC incubated for 18 to 24 hrs in presence of MgCl2 by broth microdilution method", "type": "functional", "conditions": "time 18-24 hrs"}, "Staphylococcus aureus [8]": {"tested_on": "Staphylococcus aureus", "assay": "Antibacterial activity against methicillin-resistant Staphylococcus aureus ATCC 33591 assessed as fold change in MIC incubated for 18 to 24 hrs in presence of NaCl by broth microdilution method", "type": "functional", "conditions": "time 18-24 hrs"}, "Staphylococcus aureus [9]": {"tested_on": "Staphylococcus aureus", "assay": "Antibacterial activity against methicillin-resistant Staphylococcus aureus ATCC 33591 assessed as fold change in MIC incubated for 18 to 24 hrs in presence of 10 percent FBS by broth microdilution method", "type": "functional", "conditions": "time 18-24 hrs"}, "Staphylococcus aureus [10]": {"tested_on": "Staphylococcus aureus", "assay": "Antibacterial activity against methicillin-resistant Staphylococcus aureus ATCC 33591 assessed as bacterial growth inhibition at 0.5 to 1 times MIC incubated for 18 to 24 hrs by time-kill assay", "type": "functional, organism-based", "conditions": "time 18-24 hrs"}, "Staphylococcus aureus [11]": {"tested_on": "Staphylococcus aureus", "assay": "Synergistic bactericidal activity against methicillin-resistant Staphylococcus aureus ATCC 33591 incubated for 18 to 24 hrs in presence of Polymyxin B by time-kill assay", "type": "functional, organism-based", "conditions": "time 18-24 hrs"}, "Staphylococcus aureus [12]": {"tested_on": "Staphylococcus aureus", "assay": "Synergistic bactericidal activity against persistent methicillin-resistant Staphylococcus aureus ATCC 33591 incubated for 18 to 24 hrs in presence of imipenem by time-kill assay", "type": "functional, organism-based", "conditions": "time 18-24 hrs"}, "Staphylococcus aureus [13]": {"tested_on": "Staphylococcus aureus", "assay": "Synergistic bactericidal activity against persistent methicillin-resistant Staphylococcus aureus ATCC 33591 incubated for 18 to 24 hrs in presence of polymyxin B by time-kill assay", "type": "functional, organism-based", "conditions": "time 18-24 hrs"}, "Staphylococcus aureus [14]": {"tested_on": "Staphylococcus aureus", "assay": "Induction of drug resistance in Staphylococcus aureus ATCC 25923 at sub-MIC measured after 15 passages", "type": "functional, organism-based"}, "Staphylococcus aureus [15]": {"tested_on": "Staphylococcus aureus", "assay": "Inhibition of imipenem-induced drug resistance in Staphylococcus aureus ATCC 25923 at sub-MIC measured upto 15 passages", "type": "functional, organism-based"}, "Staphylococcus aureus [16]": {"tested_on": "Staphylococcus aureus", "assay": "Synergistic antibacterial activity against methicillin-resistant Staphylococcus aureus ATCC 33591 assessed as fractional inhibitory concentration index upto 2 times MIC incubated for 18 to 24 hrs in presence of ciprofloxacin by checkerboard assay", "type": "functional", "conditions": "time 18-24 hrs"}, "Staphylococcus aureus [17]": {"tested_on": "Staphylococcus aureus", "assay": "Anti-biofilm activity against methicillin-resistant Staphylococcus aureus ATCC 33591 at 8 uM incubated for 24 hrs by MTT assay", "type": "functional, organism-based"}, "Staphylococcus aureus [18]": {"tested_on": "Staphylococcus aureus", "assay": "Elimination of biofilm generation of methicillin-resistant Staphylococcus aureus ATCC 33591 incubated for 24 hrs by MTT assay", "type": "functional, organism-based"}, "Staphylococcus aureus [19]": {"tested_on": "Staphylococcus aureus", "assay": "Bactericidal activity against methicillin-resistant Staphylococcus aureus ATCC 33591 at 4 times MIC incubated for 24 hrs in presence of >64 ug/ml phosphatidylcholine by absorbance based assay", "type": "functional, organism-based"}, "Staphylococcus aureus [20]": {"tested_on": "Staphylococcus aureus", "assay": "Induction of ROS production in methicillin-resistant Staphylococcus aureus ATCC 33591 at 4 times MIC measured upto 360 mins in presence of NAC by DCFH-DA dye based analysis", "type": "functional, organism-based"}, "[21]": {"assay": "Toxicity in Balb/c mouse assessed as survival rate at 20 mg/kg, ip measured after 7 days", "type": "organism-based", "conditions": "in vivo, time 7 day"}, "[22]": {"assay": "Toxicity in Balb/c mouse assessed as change in kidney co-efficient at 20 to 80 mg/kg, ip measured after 7 days", "type": "organism-based", "conditions": "in vivo, 168 h, dose 20-80 mg/kg, time 7 day"}, "[23]": {"assay": "Toxicity in Balb/c mouse assessed as spleen pigmentation at 80 mg/kg, ip measured after 7 days", "type": "organism-based", "conditions": "in vivo, 168 h, time 7 day"}, "[24]": {"assay": "Toxicity in Balb/c mouse assessed as kidney pigmentation at 80 mg/kg, ip measured after 7 days", "type": "organism-based", "conditions": "in vivo, 168 h, time 7 day"}, "[25]": {"assay": "Toxicity in Balb/c mouse assessed as change in serum AST level at 20 to 80 mg/kg, ip measured after 7 days", "type": "organism-based", "conditions": "in vivo, 168 h, dose 20-80 mg/kg, time 7 day"}, "Staphylococcus aureus [26]": {"tested_on": "Staphylococcus aureus", "assay": "Antibacterial activity against methicillin-resistant Staphylococcus aureus ATCC 33591 infected in Balb/c mouse model of acute systemic infection assessed as reduction in hypoplasia of white pulp in spleen at 10 mg/kg, ip measured after 5 days by H and E staining based analysis", "type": "functional, organism-based", "conditions": "time 5.0 day"}, "Staphylococcus aureus [27]": {"tested_on": "Staphylococcus aureus", "assay": "(§1) Antibacterial activity against methicillin-resistant Staphylococcus aureus ATCC 33591 infected in Balb/c mouse model of pneumonia infection assessed as reduction in inflammatory cell infiltration in lung at 10 mg/kg, ip administered thrice at 4, 8 and 12 hrs post-infection measured after 24 hrs post-infection by H and E staining based analysis", "type": "functional, organism-based", "conditions": "time 20.0 hrs"}, "Staphylococcus aureus [28]": {"tested_on": "Staphylococcus aureus", "assay": "as §1, with “TNF-alpha activity” for “inflammatory cell infiltration”, “IHC” for “H and E staining based”", "type": "functional, organism-based", "conditions": "time 20.0 hrs"}, "Staphylococcus aureus [29]": {"tested_on": "Staphylococcus aureus", "assay": "Antibacterial activity against methicillin-resistant Staphylococcus aureus ATCC 33591 infected in Balb/c mouse model of skin wound infection assessed as reduction in bacterial load in skin at 10 mg/kg, ip administered thrice at 1, 24 and 48 hrs post-infection measured after 72 hrs post-infection", "type": "functional, organism-based", "conditions": "time 71.0 hrs"}, "Staphylococcus aureus [30]": {"tested_on": "Staphylococcus aureus", "assay": "Antibacterial activity against methicillin-resistant Staphylococcus aureus ATCC 33591 infected in Balb/c mouse model of skin wound infection assessed as wound heal at 10 mg/kg, ip administered thrice at 1, 24 and 48 hrs post-infection measured after 14 days relative to control", "type": "functional", "conditions": "time 14 day"}, "Staphylococcus aureus [31]": {"tested_on": "Staphylococcus aureus", "assay": "as §1, with “skin wound” for “pneumonia”, “skin” for “lung”, “1, 24” for “4, 8”, “48” for “12”, “14 days in presence of polymyxin B” for “24 hrs post-infection”", "type": "functional, organism-based", "conditions": "time 14.0 day"}, "Staphylococcus aureus [32]": {"tested_on": "Staphylococcus aureus", "assay": "Antibacterial activity against methicillin-resistant Staphylococcus aureus ATCC 33591 infected in Balb/c mouse model of skin wound infection assessed as reduction in keratosis in wound surface at 10 mg/kg, ip administered thrice at 1, 24 and 48 hrs post-infection measured after 14 days by IHC analysis", "type": "functional, organism-based", "conditions": "time 14.0 day"}},
  "note": "Active and inactive are the calls of the source. The rule behind the calls is not given here.",
  "data": [
    {"molecule": "CCCCCCCCCCCC(=O)N[C@H](CCCNC(=N)N)C(=O)N[C@H](CCCNC(=N)N)C(=O)N[C@H](Cc1c[nH]c2ccccc12)C(=O)O", "values": [
      {"measurement": "Activity", "setting": "Staphylococcus aureus [1]", "result": "Active"},
      {"measurement": "MIC", "setting": "Staphylococcus aureus [2]", "result": 4, "unit": "µM"},
      {"measurement": "MIC", "setting": "Staphylococcus aureus [3]", "result": 4, "unit": "µM"},
      {"measurement": "MIC", "setting": "Enterococcus faecalis", "result": 8, "unit": "µM"},
      {"measurement": "MIC", "setting": "Staphylococcus aureus [4]", "result": 4, "unit": "µM"},
      {"measurement": "MIC", "setting": "Staphylococcus aureus [5]", "result": 4, "unit": "µM"},
      {"measurement": "MIC", "setting": "Staphylococcus aureus [6]", "result": 8, "unit": "µM"},
      {"measurement": "fold change (FC)", "setting": "Staphylococcus aureus [7]", "result": "<3"},
      {"measurement": "fold change (FC)", "setting": "Staphylococcus aureus [8]", "result": "<3"},
      {"measurement": "fold change (FC)", "setting": "Staphylococcus aureus [9]", "result": 8},
      {"measurement": "inhibition", "setting": "Staphylococcus aureus [10]", "result": "Active"},
      {"measurement": "Activity", "setting": "Staphylococcus aureus [11]", "result": "Active; Compound Exhibited Better Effect Than Compound Alone-Treatment; Although It Was Lower Than Polymyxin B, It Significantly Reduced Dosage Of Polymyxin B And Reduced Toxicity Of The Drug"},
      {"measurement": "Activity", "setting": "Staphylococcus aureus [12]", "result": "Dose-dependent-effect"},
      {"measurement": "Activity", "setting": "Staphylococcus aureus [13]", "result": "Dose-dependent-effect"},
      {"measurement": "Activity", "setting": "Staphylococcus aureus [14]", "result": "inactive"},
      {"measurement": "inhibition", "setting": "Staphylococcus aureus [15]", "result": "Active"},
      {"measurement": "fractional inhibitory concentration index (FICI)", "setting": "Staphylococcus aureus [16]", "result": 0.75},
      {"measurement": "Activity", "setting": "Staphylococcus aureus [17]", "result": "Active; Compound Activity Was Slightly Weaker Than Vancomycin But Significantly Better Than Polymyxin B, Imipenem, Ciprofloxacin And Gentamicin"},
      {"measurement": "Activity", "setting": "Staphylococcus aureus [18]", "result": "Not active; Compound Activity Was Not Significant"},
      {"measurement": "Activity", "setting": "Staphylococcus aureus [19]", "result": "inactive"},
      {"measurement": "Activity", "setting": "Staphylococcus aureus [20]", "result": "inactive"},
      {"measurement": "survival at 168 h", "setting": "[21]", "result": 62.5, "unit": "%"},
      {"measurement": "Activity", "setting": "[22]", "result": "Toxic"},
      {"measurement": "Activity", "setting": "[23]", "result": "Toxic"},
      {"measurement": "Activity", "setting": "[24]", "result": "Toxic"},
      {"measurement": "Activity", "setting": "[25]", "result": "Non-toxic"},
      {"measurement": "Activity", "setting": "Staphylococcus aureus [26]", "result": "Active"},
      {"measurement": "Activity", "setting": "Staphylococcus aureus [27]", "result": "Active"},
      {"measurement": "Activity", "setting": "Staphylococcus aureus [28]", "result": "Active"},
      {"measurement": "Activity", "setting": "Staphylococcus aureus [29]", "result": "Active"},
      {"measurement": "Activity", "setting": "Staphylococcus aureus [30]", "result": 100, "unit": "%"},
      {"measurement": "Activity", "setting": "Staphylococcus aureus [31]", "result": "Active"},
      {"measurement": "Activity", "setting": "Staphylococcus aureus [32]", "result": "Active"}
    ]}
  ]
}
